Data from ChEMBL document CHEMBL1201862, “PubChem BioAssay data set” (2004).
The source made the active and inactive calls.

Key:
[1] = A549 cell cytotoxicity, dose response, cytotoxicity control, plate reader, cherry-pick, antagonist series (AID 743412); format: functional, cell-based
[2] = HEp-2 cell cytotoxicity, dose response, cytotoxicity control for RSV inhibitor project, HTS (AID 2410); format: functional; conditions: human respiratory syncytial virus
[3] = LGR2 antagonists, dose response, cell-based, HEK293, CRE-luciferase reporter, cherry pick, set 2 (AID 743343); format: functional;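 further: transfected cells were stimulated with diluted bursicon conditioned medium after compound addition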
[4] = HEK293 cell cytotoxicity, dose response, cytotoxicity control, plate reader, cherry-picked samples (AID 743446); format: functional, cell-based
[5] = target: T1, Replicative DNA helicase DnaB (Mycobacterium tuberculosis, UniProt P9WMR3); assay: DnaB intein splicing inhibitors, dose response, biochemical, cell-free fluorescence (AID 449749); format: functional
T1 sequence (P9WMR3 whole entry): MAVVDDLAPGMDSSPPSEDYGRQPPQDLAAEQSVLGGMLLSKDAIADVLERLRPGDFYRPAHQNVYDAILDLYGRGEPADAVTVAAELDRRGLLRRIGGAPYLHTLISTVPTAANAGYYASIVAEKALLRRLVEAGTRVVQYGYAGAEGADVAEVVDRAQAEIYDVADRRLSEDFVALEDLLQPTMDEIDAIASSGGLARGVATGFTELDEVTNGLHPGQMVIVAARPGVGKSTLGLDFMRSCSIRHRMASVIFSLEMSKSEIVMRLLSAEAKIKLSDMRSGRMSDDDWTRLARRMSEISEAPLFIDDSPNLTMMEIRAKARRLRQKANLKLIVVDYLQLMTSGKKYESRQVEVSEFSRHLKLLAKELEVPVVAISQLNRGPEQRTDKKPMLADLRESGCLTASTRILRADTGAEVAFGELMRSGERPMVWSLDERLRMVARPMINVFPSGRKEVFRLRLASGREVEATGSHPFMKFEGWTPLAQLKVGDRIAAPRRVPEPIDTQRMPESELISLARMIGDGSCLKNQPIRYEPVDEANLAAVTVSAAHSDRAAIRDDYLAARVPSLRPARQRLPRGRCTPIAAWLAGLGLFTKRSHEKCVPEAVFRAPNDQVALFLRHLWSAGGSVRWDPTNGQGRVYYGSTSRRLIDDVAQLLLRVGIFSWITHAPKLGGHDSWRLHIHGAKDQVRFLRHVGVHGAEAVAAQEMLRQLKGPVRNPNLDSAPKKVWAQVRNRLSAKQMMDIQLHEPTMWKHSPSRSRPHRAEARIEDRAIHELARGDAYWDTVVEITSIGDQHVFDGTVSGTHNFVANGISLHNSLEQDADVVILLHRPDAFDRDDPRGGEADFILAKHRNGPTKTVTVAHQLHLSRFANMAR

[6] = MC4R antagonists, dose response, counter-screen for LGR2 antagonist project, cell-based, plate reader, cherry pick (AID 743444); format: functional;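 further: transfected HEK 293 cells stimulated with alpha-MSH peptide; potency of inhibitors of the alpha-MSH evoked signal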
[7] = HepG2 cell cytotoxicity, dose response, cytotoxicity control, plate reader, cherry-pick, antagonist series (AID 743416); format: functional, cell-based
[8] = Intein inhibitors as potential Tuberculosis drugs, a cytotoxicity screen. [Related pubchem assays (depositor defined):AID2221, AID2223, AID434968, AID435010, AID449749, AID449750, AID489010]; format: functional
Protein RecA = target: T2, Protein RecA (Mycobacterium tuberculosis, UniProt P9WHJ3); assay: Fluorescence Cell-Free Homogeneous Dose Retest to Identify Inhibitors of RecA-Intein Splicing Activity. [Related pubchem assays (depositor defined):AID2097, AID2223, AID489010, AID492950]; format: functional
T2 sequence (P9WHJ3 whole entry): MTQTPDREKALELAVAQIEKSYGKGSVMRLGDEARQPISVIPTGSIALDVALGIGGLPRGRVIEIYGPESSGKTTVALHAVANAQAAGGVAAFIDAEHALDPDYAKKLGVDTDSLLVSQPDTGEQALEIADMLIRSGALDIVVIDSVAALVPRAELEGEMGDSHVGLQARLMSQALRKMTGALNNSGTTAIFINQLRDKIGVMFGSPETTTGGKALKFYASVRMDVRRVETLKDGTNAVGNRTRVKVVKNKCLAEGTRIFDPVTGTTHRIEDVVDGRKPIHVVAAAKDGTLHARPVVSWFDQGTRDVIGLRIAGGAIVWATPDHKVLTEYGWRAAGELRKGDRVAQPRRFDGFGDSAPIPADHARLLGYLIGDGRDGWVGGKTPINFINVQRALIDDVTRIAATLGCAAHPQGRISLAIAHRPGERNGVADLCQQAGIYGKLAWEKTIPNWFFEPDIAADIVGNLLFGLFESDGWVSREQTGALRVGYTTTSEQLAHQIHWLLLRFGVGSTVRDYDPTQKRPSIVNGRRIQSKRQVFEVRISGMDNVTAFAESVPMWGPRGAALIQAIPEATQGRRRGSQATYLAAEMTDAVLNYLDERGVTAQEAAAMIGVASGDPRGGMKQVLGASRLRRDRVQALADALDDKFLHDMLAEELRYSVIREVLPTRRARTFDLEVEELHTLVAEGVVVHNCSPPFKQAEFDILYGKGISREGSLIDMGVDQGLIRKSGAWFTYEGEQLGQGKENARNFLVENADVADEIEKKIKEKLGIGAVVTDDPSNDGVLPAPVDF

[9] = target: T3, Tyrosine-protein phosphatase non-receptor type 22 (Homo sapiens, UniProt Q9Y2R2); assay: PubChem AID 2140
T3 sequence (Q9Y2R2 whole entry): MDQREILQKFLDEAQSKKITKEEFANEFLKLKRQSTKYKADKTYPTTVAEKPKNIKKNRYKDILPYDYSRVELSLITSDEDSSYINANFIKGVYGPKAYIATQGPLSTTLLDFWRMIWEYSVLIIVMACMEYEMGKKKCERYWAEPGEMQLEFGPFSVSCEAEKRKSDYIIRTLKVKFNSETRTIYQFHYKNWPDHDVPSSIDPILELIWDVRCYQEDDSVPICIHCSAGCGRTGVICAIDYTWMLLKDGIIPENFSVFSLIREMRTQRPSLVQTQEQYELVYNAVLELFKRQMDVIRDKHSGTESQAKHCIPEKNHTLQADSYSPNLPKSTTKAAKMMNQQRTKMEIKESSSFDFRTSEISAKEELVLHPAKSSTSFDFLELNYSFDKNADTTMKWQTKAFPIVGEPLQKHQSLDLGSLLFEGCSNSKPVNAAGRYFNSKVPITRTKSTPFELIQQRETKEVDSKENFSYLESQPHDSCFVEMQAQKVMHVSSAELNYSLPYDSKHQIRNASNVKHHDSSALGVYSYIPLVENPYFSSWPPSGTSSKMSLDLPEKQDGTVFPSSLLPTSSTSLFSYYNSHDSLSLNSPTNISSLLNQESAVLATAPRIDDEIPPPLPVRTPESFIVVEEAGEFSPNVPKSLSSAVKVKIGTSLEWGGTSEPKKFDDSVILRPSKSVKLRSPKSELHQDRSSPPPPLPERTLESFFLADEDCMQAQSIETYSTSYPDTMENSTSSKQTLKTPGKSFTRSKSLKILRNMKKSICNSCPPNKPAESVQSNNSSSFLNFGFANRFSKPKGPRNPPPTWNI

[10] = target: T3, Tyrosine-protein phosphatase non-receptor type 22; assay: SAR LYP1 Fluorescent Assay using OMFP substrate for In Vitro dose response studies - Set 3. [Related pubchem assays (depositor defined):AID1779, AID1784, AID2140, AID2686]; format: functional
[11] = target: T3, Tyrosine-protein phosphatase non-receptor type 22; assay: SAR LYP1 Fluorescent Assay using OMFP substrate for In Vitro dose response studies - Set 2. [Related pubchem assays (depositor defined):AID1779, AID1784, AID2140, AID449726, AID488869]; format: functional
[12] = target: T4, Tyrosine-protein phosphatase non-receptor type 7 (Homo sapiens, UniProt P35236); assay: HePTP (PTPN7) phosphatase inhibitor potency, SAR follow-up, biochemical, set 2 (AID 449736); format: functional
T4 sequence (P35236 whole entry): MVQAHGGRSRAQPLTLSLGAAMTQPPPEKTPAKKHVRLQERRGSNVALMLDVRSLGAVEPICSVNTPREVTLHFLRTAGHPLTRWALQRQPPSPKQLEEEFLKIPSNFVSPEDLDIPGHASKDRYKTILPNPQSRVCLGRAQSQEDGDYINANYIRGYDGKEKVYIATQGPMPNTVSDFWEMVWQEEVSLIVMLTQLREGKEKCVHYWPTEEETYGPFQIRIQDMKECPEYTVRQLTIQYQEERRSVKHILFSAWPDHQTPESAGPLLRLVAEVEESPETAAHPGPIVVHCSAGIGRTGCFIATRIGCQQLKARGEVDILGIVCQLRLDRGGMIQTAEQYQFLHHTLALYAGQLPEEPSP

[13] = target: T3, Tyrosine-protein phosphatase non-receptor type 22; assay: SAR LYP1 Fluorescent Assay using pCAP substrate for In Vitro dose response studies - Set 2. [Related pubchem assays (depositor defined):AID1779, AID1784, AID2135, AID449727]; format: functional
[14] = target: T3, Tyrosine-protein phosphatase non-receptor type 22; assay: PubChem AID 2135
[15] = target: T5, Tyrosine-protein phosphatase non-receptor type 12 (Homo sapiens, UniProt Q05209); assay: SAR Selectivity Analysis of small molecule inhibitors of PEST using pCAP in a fluorescence assay. [Related pubchem assays (depositor defined):AID1779, AID1784, AID2135]; format: functional
T5 sequence (Q05209 whole entry): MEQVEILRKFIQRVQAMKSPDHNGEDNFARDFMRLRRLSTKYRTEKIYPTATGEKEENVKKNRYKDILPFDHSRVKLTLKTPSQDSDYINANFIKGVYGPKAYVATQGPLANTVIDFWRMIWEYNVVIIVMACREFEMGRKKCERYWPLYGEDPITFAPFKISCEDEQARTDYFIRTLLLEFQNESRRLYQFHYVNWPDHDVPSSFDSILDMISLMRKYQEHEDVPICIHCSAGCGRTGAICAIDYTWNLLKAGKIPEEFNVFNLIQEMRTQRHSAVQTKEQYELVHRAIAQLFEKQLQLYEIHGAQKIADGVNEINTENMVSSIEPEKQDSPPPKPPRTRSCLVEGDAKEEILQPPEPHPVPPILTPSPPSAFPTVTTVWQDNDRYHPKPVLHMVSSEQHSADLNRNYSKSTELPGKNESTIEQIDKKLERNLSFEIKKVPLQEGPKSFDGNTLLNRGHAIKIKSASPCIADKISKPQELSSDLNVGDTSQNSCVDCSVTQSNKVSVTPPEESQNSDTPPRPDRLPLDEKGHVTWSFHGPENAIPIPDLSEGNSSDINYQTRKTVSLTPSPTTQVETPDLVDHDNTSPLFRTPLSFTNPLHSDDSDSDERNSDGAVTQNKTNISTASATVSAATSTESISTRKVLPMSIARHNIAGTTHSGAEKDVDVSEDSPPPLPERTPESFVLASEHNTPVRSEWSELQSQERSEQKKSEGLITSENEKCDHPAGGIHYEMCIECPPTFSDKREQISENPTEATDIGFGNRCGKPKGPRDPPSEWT

[16] = target: T3, Tyrosine-protein phosphatase non-receptor type 22; assay: LYP (PTPN22) phosphatase inhibitor potency, SAR follow-up, biochemical, pCAP fluorogenic substrate, fluorescence, set 3 (AID 449727); format: functional
INS1 = assay: beta cell apoptosis inhibitors, cytokine rescue, dose response, luminescence, retest (AID 449756); format: functional, cell-based; conditions: Rattus norvegicus;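 further: cell death triggered by IL-1 beta plus TNF-alpha plus IFN-gamma mixture; protective hits raise ATP signal compared with cytokine alone wells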
[17] = growth suppression of beta-catenin-knockout colon cells, dose response, cell-based, HCT116, human colon tumor (AID 1045); format: functional;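 further: HCT116 colon tumor cells with beta catenin knocked out; cells exposed to compound for 60 hours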
[18] = inhibitors of firefly luciferase expression or activity, dose response, H4 neuroglioma cells, luminescence (AID 1990); format: functional, cell-based
[19] = inhibitors of SNCA 5'UTR-driven reporter translation, confirmation, H4 neuroglioma cells, luminescence (AID 1988); format: functional, cell-based
[20] = Luminescence Cell-Based Dose Response HTS to Identify Inhibitors of 5'UTR Stem-Loop Driven Prion Protein mRNA Translation in H4 Neuroglioblastoma Cells. [Related pubchem assays: 1827 (Project Summary), 1813 (Primary HTS)]; format: functional
[21] = growth suppression of PTEN-null colon cells, dose response, cell-based, HCT116 PTEN knockout (AID 1047); format: functional;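 further: HCT116 colon tumor cells with PTEN knocked out; cells exposed to compound for 60 hours before readout; potency for loss of cell viability measured by luminescence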

What does the source list for `Cc1sc2ncnc(Sc3nnnn3-c3ccccc3)c2c1C`?
AC50 [1]: 10.9 µM (active); CC50 [2]: 11.2 µM (active); AC50 [3]: 4.15 µM (active); AC50 [4]: 19.3 µM (active); AC50 [5]: 3.83 µM (active); AC50 [6]: 3.94 µM (active); AC50 [7]: 15.4 µM (active); CC50 [8]: 14.4 µM (active); EC50 (Protein RecA): 3.18 µM (active)

For `CCOc1cc(/C=C(/C#N)c2cccc(F)c2)cc(Cl)c1OCc1ccc(C(=O)O)cc1`, which IC50 [9] is on record?
Its IC50 is > 100 µM (inactive).

And the IC50 [10]?
The IC50 was 34.6 µM (active).

What about the IC50 [11] of the same compound?
The IC50 was 21.8 µM (active).

And the IC50 [12]?
The IC50 was 2.25 µM (active).

And the IC50 [13]?
The IC50 was 36.1 µM (active).

What about the IC50 [14] of the same compound?
The IC50 was > 100 µM (inactive).

What about the IC50 [15] of the same compound?
Its IC50 is 5.08 µM (active).

And the IC50 [16]?
The IC50 was 46.7 µM (active).

What does the source list for `CCOC(=O)C1CCN(C(=O)c2c(C)oc3c2C(=O)c2ccccc2C3=O)CC1`?
AC50 (INS1): 6.25 µM (active); EC50 [17]: 3.32 µM (active); EC50 [18]: > 120 µM (not active); EC50 [19]: 7.82 µM (active); AC50 [5]: 2.06 µM (active); EC50 [20]: 18.3 µM (active); CC50 [8]: 13.7 µM (active); EC50 [21]: 3.87 µM (active); EC50 (Protein RecA): 0.645 µM (active)
